Measured values reported in patent US8119614B2, “Substitution derivatives of N6-benzyladenosine, methods of their preparation, their use for preparation of drugs, cosmetic preparations and growth regulators, pharmaceutical preparations, cosmetic preparations and growth regulators containing these compounds” (Ustav Experimentalni Botaniky Akademie Ved Ceske Republiky, priority 2002, dated 2012).

Assays:
HOS = test: In vitro cytotoxic activity, Calcein AM assay, HOS; assay type: cell-based; details: 72 hours
[1] = system: Human T-lymphoblastic leukemia cell line CEM; test: In vitro cytotoxic activity, Calcein AM assay, CEM; assay type: cell-based; details: 72 hours
Procedure, shortened: (§1)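 Cells seeded at 10^4 per well, pre-incubated 24 h at 37 °C/5% CO2, then exposed 72 h to six 4-fold dilutions of compound (top well concentration usually 166.7 μM) in duplicate. Viability read by Calcein AM fluorescence after 1 h; GI50 taken from dose-response curves.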

promyelocytic HL-60 = test: In vitro cytotoxic activity, Calcein AM assay, HL60; assay type: cell-based, human; details: 72 hours, read-out: IC 50 HL60
Procedure, shortened: as §1

[2] = system: breast carcinoma cell lines MCF-7; test: In vitro cytotoxic activity, Calcein AM assay, MCF7; assay type: cell-based, human; details: 72 hours, read-out: IC 50 MCF7
Procedure, shortened: as §1

[3] = system: Amaranthus caudatus cotyledon/hypocotyl explants; test: Amaranthus bioassay (betacyanin content); assay type: in vivo; details: for Concentration with highest activity: 48 h dark; for Activity (%) [10^−5 mol · l^−1 BAP = 100%]: at concentration with highest activity
Procedure, shortened: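 Surface-sterilised Amaranthus caudatus var. atropurpurea seeds were germinated 72 h at 25° C. in darkness, then de-rooted. Cotyledon/hypocotyl explants (20 per dish) were incubated under green safe light on filter paper with 1 ml medium of 10 μmol NA2HPO4-KH2PO4, pH 6.8, 5 μmol tyrosine and cytokinin (10^-8M to 10^-4M) for 48 h at 25° C. in darkness. Betacyanin was extracted in […] acetic acid and measured by absorbance at 537 nm and 620 nm.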

mouse fibroblasts NIH3T3 = test: In vitro cytotoxic activity, Calcein AM assay, NIH-3T3; assay type: cell-based; details: 72 hours, read-out: IC 50 NIH-3T3
Procedure, shortened: as §1

[4] = system: human erythroleukaemia K562; test: In vitro cytotoxic activity, Calcein AM assay, K-562; assay type: cell-based; details: 72 hours, read-out: IC 50 K-562
Procedure, shortened: as §1

[5] = system: Triticum aestivum cv. Hereward; test: Senescence inhibition on winter wheat leaf segments (chlorophyll retention); assay type: in vivo; details: for Concentration with highest activity: chlorophyll retention in excised wheat leaf tips, 96 h dark; for Activity (%) [10^−4 mol · l^−1 BAP = 100%]: chlorophyll retention, at concentration with highest activity
Procedure, shortened: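 Tip segments of the first leaf from 7-day wheat seedlings held, basal ends down, in cytokinin solutions (10^−8M to 10^−4M) for 96 h at 25° C in darkness. Chlorophyll extracted in 80% ethanol at 80° C, read at 665 nm; activity at best concentration given relative to 10^−4 M BAP (100%), means of five replicates.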

`OC[C@H]1O[C@@H](n2cnc3c(NCc4ccccc4Cl)ncnc32)[C@H](O)[C@@H]1O` [2-chlorobenzylamino, 6-(2-chlorobenzylamino)purine riboside] was tested, and the IC50 (HOS) was > 167 µM, the IC50 [1] was 14.5 µM and the IC50 (promyelocytic HL-60) was 1.6 µM. For the same compound, the IC50 [2] was > 167 µM, the “Concentration with highest activity” value [3] was 10^−5 mol · l^−1 and the “Activity (%) [10^−5 mol · l^−1 BAP = 100%]” value [3] was 113 ± 7%. The IC50 (mouse fibroblasts NIH3T3) was > 167 µM, the IC50 [4] was 64 µM and the “Concentration with highest activity” value [5] was 10^−4 mol · l^−1. For the same compound, the “Activity (%) [10^−4 mol · l^−1 BAP = 100%]” value [5] was 119 ± 9%.

In the case of `OC[C@H]1O[C@@H](n2cnc3c(NCc4ccccc4F)ncnc32)[C@H](O)[C@@H]1O` [2-fluorobenzylamino, 6-(2-fluorobenzylamino)purine riboside], the IC50 (HOS) is reported as > 167 µM, the IC50 [1] is reported as 4.6 µM and the IC50 (promyelocytic HL-60) is reported as 3.2 µM. The IC50 [2] was > 167 µM, the “Concentration with highest activity” value [3] was 10^−4 mol · l^−1 and the “Activity (%) [10^−5 mol · l^−1 BAP = 100%]” value [3] was 96 ± 2%. The IC50 [4] was 33.2 µM, the “Concentration with highest activity” value [5] was 10^−4 mol · l^−1 and the “Activity (%) [10^−4 mol · l^−1 BAP = 100%]” value [5] was 118 ± 19%.

For `COc1cccc(CNc2ncnc3c2ncn3[C@@H]2O[C@H](CO)[C@@H](O)[C@H]2O)c1O` [2-hydroxy-3-methoxybenzylamino, 6-(2-hydroxy-3-methoxybenzylamino)purine riboside], the IC50 (HOS) was > 167 µM, the IC50 [1] was 0.3 µM and the IC50 (promyelocytic HL-60) was 0.15 µM. For the same compound, the IC50 [2] was 27 µM, the “Concentration with highest activity” value [3] was 10^−4 mol · l^−1 and the “Activity (%) [10^−5 mol · l^−1 BAP = 100%]” value [3] was 18 ± 5%. For the same compound, the IC50 (mouse fibroblasts NIH3T3) was > 167 µM, the IC50 [4] was 19.2 µM and the “Concentration with highest activity” value [5] was 10^−4 mol · l^−1. The “Activity (%) [10^−4 mol · l^−1 BAP = 100%]” value [5] was 30 ± 8%.

`COc1ccccc1CNc1ncnc2c1ncn2[C@@H]1O[C@H](CO)[C@@H](O)[C@H]1O` [2-methoxybenzylamino, 6-(2-methoxybenzylamino)purine riboside] showed an IC50 (HOS) of 21.2 µM, an IC50 [1] of 3.2 µM and an IC50 (promyelocytic HL-60) of 2.3 µM. For the same compound, the IC50 [2] was > 167 µM, the “Concentration with highest activity” value [3] was 10^−5 mol · l^−1 and the “Activity (%) [10^−5 mol · l^−1 BAP = 100%]” value [3] was 86 ± 4%. For the same compound, the IC50 (mouse fibroblasts NIH3T3) was > 167 µM, the IC50 [4] was 11.2 µM and the “Concentration with highest activity” value [5] was 10^−4 mol · l^−1. The “Activity (%) [10^−4 mol · l^−1 BAP = 100%]” value [5] was 198 ± 12%.

With `Cc1ccccc1CNc1ncnc2c1ncn2[C@@H]1O[C@H](CO)[C@@H](O)[C@H]1O` [2-methylbenzylamino, 6-(2-methylbenzylamino)purine riboside] the IC50 (HOS) was > 167 µM, the IC50 [1] was 14 µM and the IC50 (promyelocytic HL-60) was 3.3 µM. For the same compound, the IC50 [2] was > 167 µM, the “Concentration with highest activity” value [3] was 10^−5 mol · l^−1 and the “Activity (%) [10^−5 mol · l^−1 BAP = 100%]” value [3] was 105 ± 14%. For the same compound, the IC50 (mouse fibroblasts NIH3T3) was > 167 µM, the IC50 [4] was > 167 µM and the “Concentration with highest activity” value [5] was 10^−4 mol · l^−1. For the same compound, the “Activity (%) [10^−4 mol · l^−1 BAP = 100%]” value [5] was 142 ± 6%.

`OC[C@H]1O[C@@H](n2cnc3c(NCc4ccc(Cl)c(Cl)c4)ncnc32)[C@H](O)[C@@H]1O` [3,4-dichlorobenzylamino, 6-(3,4-dichlorobenzylamino)purine riboside] was tested, and the IC50 (HOS) was > 167 µM, the IC50 [1] was 3 µM and the IC50 (promyelocytic HL-60) was 1.1 µM. The IC50 [2] was 88.8 µM, the “Concentration with highest activity” value [3] was 10^−4 mol · l^−1 and the “Activity (%) [10^−5 mol · l^−1 BAP = 100%]” value [3] was 68 ± 10%. The IC50 (mouse fibroblasts NIH3T3) was > 167 µM, the IC50 [4] was 6.5 µM and the “Concentration with highest activity” value [5] was 10^−4 mol · l^−1. The “Activity (%) [10^−4 mol · l^−1 BAP = 100%]” value [5] was 151 ± 29%.

For `OC[C@H]1O[C@@H](n2cnc3c(NCc4cccc(Br)c4)ncnc32)[C@H](O)[C@@H]1O` [3-bromobenzylamino, 6-(3-bromobenzylamino)purine riboside], the IC50 (HOS) was > 167 µM, the IC50 [1] was 5 µM and the IC50 (promyelocytic HL-60) was 8 µM. The IC50 [2] was > 167 µM, the “Concentration with highest activity” value [3] was 10^−4 mol · l^−1 and the “Activity (%) [10^−5 mol · l^−1 BAP = 100%]” value [3] was 151 ± 16%. The IC50 (mouse fibroblasts NIH3T3) was > 167 µM, the IC50 [4] was 19.7 µM and the “Concentration with highest activity” value [5] was 10^−4 mol · l^−1. For the same compound, the “Activity (%) [10^−4 mol · l^−1 BAP = 100%]” value [5] was 89 ± 10%.

For `OC[C@H]1O[C@@H](n2cnc3c(NCc4cccc(Cl)c4)ncnc32)[C@H](O)[C@@H]1O` [3-chlorobenzylamino, 6-(3-chlorobenzylamino)purine riboside], the IC50 (HOS) was > 167 µM, the IC50 [1] was 1.6 µM and the IC50 (promyelocytic HL-60) was 0.75 µM. For the same compound, the IC50 [2] was > 167 µM, the “Concentration with highest activity” value [3] was 10^−5 mol · l^−1 and the “Activity (%) [10^−5 mol · l^−1 BAP = 100%]” value [3] was 139 ± 12%. For the same compound, the IC50 (mouse fibroblasts NIH3T3) was > 167 µM, the IC50 [4] was 30.4 µM and the “Concentration with highest activity” value [5] was 10^−4 mol · l^−1. The “Activity (%) [10^−4 mol · l^−1 BAP = 100%]” value [5] was 72 ± 8%.

With `OC[C@H]1O[C@@H](n2cnc3c(NCc4cccc(F)c4)ncnc32)[C@H](O)[C@@H]1O` [3-fluorobenzylamino, 6-(3-fluorobenzylamino)purine riboside] the IC50 (HOS) was > 167 µM, the IC50 [1] was 4 µM and the IC50 (promyelocytic HL-60) was 0.92 µM. For the same compound, the IC50 [2] was 16.6 µM, the “Concentration with highest activity” value [3] was 10^−4 mol · l^−1 and the “Activity (%) [10^−5 mol · l^−1 BAP = 100%]” value [3] was 92 ± 6%. The IC50 (mouse fibroblasts NIH3T3) was > 167 µM, the IC50 [4] was 7 µM and the “Concentration with highest activity” value [5] was 10^−4 mol · l^−1. The “Activity (%) [10^−4 mol · l^−1 BAP = 100%]” value [5] was 220 ± 16%.

With `COc1cccc(CNc2ncnc3c2ncn3[C@@H]2O[C@H](CO)[C@@H](O)[C@H]2O)c1` [3-methoxybenzylamino, 6-(3-methoxybenzylamino)purine riboside] the IC50 (HOS) was > 167 µM, the IC50 [1] was 7.6 µM and the IC50 (promyelocytic HL-60) was 4.9 µM. The IC50 [2] was > 167 µM, the “Concentration with highest activity” value [3] was 10^−4 mol · l^−1 and the “Activity (%) [10^−5 mol · l^−1 BAP = 100%]” value [3] was 98 ± 10%. The IC50 (mouse fibroblasts NIH3T3) was > 167 µM, the IC50 [4] was > 167 µM and the “Concentration with highest activity” value [5] was 10^−4 mol · l^−1. The “Activity (%) [10^−4 mol · l^−1 BAP = 100%]” value [5] was 209 ± 8%.

For `Cc1cccc(CNc2ncnc3c2ncn3[C@@H]2O[C@H](CO)[C@@H](O)[C@H]2O)c1` [3-methylbenzylamino, 6-(3-methylbenzylamino)purine riboside], the IC50 (HOS) was > 167 µM, the IC50 [1] was 19.1 µM and the IC50 (promyelocytic HL-60) was 6.4 µM. For the same compound, the IC50 [2] was > 167 µM, the “Concentration with highest activity” value [3] was 10^−5 mol · l^−1 and the “Activity (%) [10^−5 mol · l^−1 BAP = 100%]” value [3] was 103 ± 16%. The IC50 (mouse fibroblasts NIH3T3) was > 167 µM, the IC50 [4] was > 167 µM and the “Concentration with highest activity” value [5] was 10^−4 mol · l^−1. The “Activity (%) [10^−4 mol · l^−1 BAP = 100%]” value [5] was 143 ± 9%.

In the case of `OC[C@H]1O[C@@H](n2cnc3c(NCc4ccc(Cl)cc4)ncnc32)[C@H](O)[C@@H]1O` [4-chlorobenzylamino, 6-(4-chlorobenzylamino)purine riboside], the IC50 (HOS) is reported as > 167 µM, the IC50 [1] is reported as 6.5 µM and the IC50 (promyelocytic HL-60) is reported as 5.3 µM. For the same compound, the IC50 [2] was > 167 µM, the “Concentration with highest activity” value [3] was 10^−5 mol · l^−1 and the “Activity (%) [10^−5 mol · l^−1 BAP = 100%]” value [3] was 35 ± 9%. The IC50 (mouse fibroblasts NIH3T3) was > 167 µM, the IC50 [4] was 16.1 µM and the “Concentration with highest activity” value [5] was 10^−4 mol · l^−1. The “Activity (%) [10^−4 mol · l^−1 BAP = 100%]” value [5] was 104 ± 6%.

`OC[C@H]1O[C@@H](n2cnc3c(NCc4ccc(F)cc4)ncnc32)[C@H](O)[C@@H]1O` [4-fluorobenzylamino, 6-(4-fluorobenzylamino)purine riboside] showed an IC50 (HOS) of 20 µM, an IC50 [1] of 1.5 µM and an IC50 (promyelocytic HL-60) of 0.86 µM. For the same compound, the IC50 [2] was 14 µM, the “Concentration with highest activity” value [3] was 10^−5 mol · l^−1 and the “Activity (%) [10^−5 mol · l^−1 BAP = 100%]” value [3] was 71 ± 4%. The IC50 (mouse fibroblasts NIH3T3) was > 167 µM, the IC50 [4] was 6.4 µM and the “Concentration with highest activity” value [5] was 10^−4 mol · l^−1. For the same compound, the “Activity (%) [10^−4 mol · l^−1 BAP = 100%]” value [5] was 148 ± 2%.
